Experiments:
Test in all cases: Kinase selectivity, DiscoverX scanMAX Kinase assay panel (% control)
Type in all cases: binding
[1] = target: T1, kinases of the scanMAX Kinase assay panel (Homo sapiens, UniProt O14936); settings: CASK; 1 uM
T1 construct: purchased DiscoverX Co. (contract measurement) scanMAX Kinase assay panel
T1 sequence (O14936 1-926): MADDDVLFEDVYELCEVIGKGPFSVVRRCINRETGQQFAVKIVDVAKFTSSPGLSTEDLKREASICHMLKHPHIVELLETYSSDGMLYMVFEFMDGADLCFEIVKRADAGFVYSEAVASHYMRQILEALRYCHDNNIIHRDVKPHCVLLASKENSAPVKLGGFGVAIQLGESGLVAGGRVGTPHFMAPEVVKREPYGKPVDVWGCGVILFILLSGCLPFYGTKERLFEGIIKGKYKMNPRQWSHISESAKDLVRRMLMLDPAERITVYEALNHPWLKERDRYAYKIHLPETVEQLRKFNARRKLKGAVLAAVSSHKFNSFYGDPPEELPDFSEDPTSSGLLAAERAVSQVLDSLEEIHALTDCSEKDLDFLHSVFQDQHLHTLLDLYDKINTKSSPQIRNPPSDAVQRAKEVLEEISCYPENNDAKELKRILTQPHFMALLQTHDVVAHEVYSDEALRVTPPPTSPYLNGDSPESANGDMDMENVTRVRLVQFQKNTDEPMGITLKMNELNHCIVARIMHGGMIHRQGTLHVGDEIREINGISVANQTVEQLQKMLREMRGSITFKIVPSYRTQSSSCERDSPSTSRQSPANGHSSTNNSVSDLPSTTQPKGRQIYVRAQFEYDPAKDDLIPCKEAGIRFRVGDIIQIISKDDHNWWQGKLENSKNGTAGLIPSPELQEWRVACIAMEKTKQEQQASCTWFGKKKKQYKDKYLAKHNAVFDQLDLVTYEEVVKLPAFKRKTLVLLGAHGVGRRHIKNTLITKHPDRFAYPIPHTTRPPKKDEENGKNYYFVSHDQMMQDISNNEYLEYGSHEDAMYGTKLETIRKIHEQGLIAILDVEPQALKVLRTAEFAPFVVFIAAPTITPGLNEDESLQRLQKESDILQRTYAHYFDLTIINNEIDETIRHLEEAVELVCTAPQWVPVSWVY
How it was run: (§1)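 Single-point screen, 1 uM cpd in DMSO. % ctrl = (cpd − pos ctrl)/(neg ctrl − pos ctrl)×100; pos ctrl = 0%, DMSO neg ctrl = 100%. Hit cutoff <35%.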

[2] = target: T2, kinases of the scanMAX Kinase assay panel (Homo sapiens, UniProt P36896); settings: ACVR1B; 1 uM
T2 construct: purchased DiscoverX Co. (contract measurement) scanMAX Kinase assay panel
T2 sequence (P36896 24-505): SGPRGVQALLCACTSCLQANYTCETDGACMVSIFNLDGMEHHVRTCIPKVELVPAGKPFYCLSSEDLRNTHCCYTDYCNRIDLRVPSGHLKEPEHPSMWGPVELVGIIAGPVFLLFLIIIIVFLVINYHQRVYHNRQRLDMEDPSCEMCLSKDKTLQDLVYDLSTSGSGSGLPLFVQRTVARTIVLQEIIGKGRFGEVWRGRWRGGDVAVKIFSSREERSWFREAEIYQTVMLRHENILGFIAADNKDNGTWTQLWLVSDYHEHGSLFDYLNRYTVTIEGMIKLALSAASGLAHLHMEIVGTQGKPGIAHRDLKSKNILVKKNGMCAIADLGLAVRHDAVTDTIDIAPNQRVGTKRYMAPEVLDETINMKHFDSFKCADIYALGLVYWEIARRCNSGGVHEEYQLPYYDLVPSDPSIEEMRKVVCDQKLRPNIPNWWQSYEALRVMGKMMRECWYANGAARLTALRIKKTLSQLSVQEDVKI
How it was run: as §1

[3] = target: T3, kinases of the scanMAX Kinase assay panel (Homo sapiens, UniProt Q13153); settings: PAK1; 1 uM
T3 construct: purchased DiscoverX Co. (contract measurement) scanMAX Kinase assay panel
How it was run: as §1

[4] = target: T4, kinases of the scanMAX Kinase assay panel (Homo sapiens, UniProt Q13523); settings: PRP4; 1 uM
T4 construct: purchased DiscoverX Co. (contract measurement) scanMAX Kinase assay panel
How it was run: as §1

[5] = target: T5, kinases of the scanMAX Kinase assay panel (Homo sapiens, UniProt Q13705); settings: ACVR2B; 1 uM
T5 construct: purchased DiscoverX Co. (contract measurement) scanMAX Kinase assay panel
How it was run: as §1

[6] = target: T6, kinases of the scanMAX Kinase assay panel (Homo sapiens, UniProt Q8NI60); settings: ADCK3; 1 uM
T6 construct: purchased DiscoverX Co. (contract measurement) scanMAX Kinase assay panel
How it was run: as §1

[7] = target: T7, kinases of the scanMAX Kinase assay panel (Homo sapiens, UniProt Q9NRH2); settings: kinase SNRK; 1 uM in DMSO
T7 construct: purchased DiscoverX Co. (contract measurement) scanMAX Kinase assay panel
T7 sequence (Q9NRH2 1-765): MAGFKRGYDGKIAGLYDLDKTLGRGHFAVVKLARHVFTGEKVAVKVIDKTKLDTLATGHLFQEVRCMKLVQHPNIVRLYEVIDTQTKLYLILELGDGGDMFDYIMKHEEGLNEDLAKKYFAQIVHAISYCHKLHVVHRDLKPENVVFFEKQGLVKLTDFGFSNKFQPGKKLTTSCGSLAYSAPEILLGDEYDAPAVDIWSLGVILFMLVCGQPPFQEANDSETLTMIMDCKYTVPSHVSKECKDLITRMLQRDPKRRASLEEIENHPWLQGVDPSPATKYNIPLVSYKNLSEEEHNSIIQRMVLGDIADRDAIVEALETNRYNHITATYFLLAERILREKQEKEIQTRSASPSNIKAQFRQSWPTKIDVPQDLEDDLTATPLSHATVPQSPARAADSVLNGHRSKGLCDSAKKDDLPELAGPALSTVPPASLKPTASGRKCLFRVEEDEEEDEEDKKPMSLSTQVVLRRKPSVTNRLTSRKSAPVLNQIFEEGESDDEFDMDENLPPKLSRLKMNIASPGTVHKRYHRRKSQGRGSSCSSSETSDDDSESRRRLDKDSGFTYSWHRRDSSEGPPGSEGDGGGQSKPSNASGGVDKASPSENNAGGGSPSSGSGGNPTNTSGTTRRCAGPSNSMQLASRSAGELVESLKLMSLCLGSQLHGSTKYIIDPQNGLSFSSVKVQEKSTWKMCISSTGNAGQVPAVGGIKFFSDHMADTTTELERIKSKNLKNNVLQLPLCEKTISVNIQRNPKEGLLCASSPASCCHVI
How it was run: as §1

[8] = target: T8, kinases of the scanMAX Kinase assay panel (Homo sapiens, UniProt Q9Y243); settings: AKT3; 1 uM
T8 construct: purchased DiscoverX Co. (contract measurement) scanMAX Kinase assay panel
How it was run: as §1

T3 sequence (Q13153 whole entry): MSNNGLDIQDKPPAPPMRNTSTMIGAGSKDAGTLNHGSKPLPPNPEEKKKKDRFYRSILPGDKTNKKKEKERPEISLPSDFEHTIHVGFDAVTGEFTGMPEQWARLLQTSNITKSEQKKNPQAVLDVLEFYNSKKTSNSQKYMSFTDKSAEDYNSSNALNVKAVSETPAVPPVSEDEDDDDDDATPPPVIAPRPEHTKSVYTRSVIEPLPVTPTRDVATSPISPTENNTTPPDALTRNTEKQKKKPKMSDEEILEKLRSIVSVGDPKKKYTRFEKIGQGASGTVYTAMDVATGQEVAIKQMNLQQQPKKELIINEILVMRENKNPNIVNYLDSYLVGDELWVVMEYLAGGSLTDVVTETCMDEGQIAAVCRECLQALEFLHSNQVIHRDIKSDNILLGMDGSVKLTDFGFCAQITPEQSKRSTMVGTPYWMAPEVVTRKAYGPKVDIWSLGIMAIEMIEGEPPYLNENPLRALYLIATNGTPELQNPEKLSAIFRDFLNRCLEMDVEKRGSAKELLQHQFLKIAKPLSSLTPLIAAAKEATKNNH
T8 sequence (Q9Y243 whole entry): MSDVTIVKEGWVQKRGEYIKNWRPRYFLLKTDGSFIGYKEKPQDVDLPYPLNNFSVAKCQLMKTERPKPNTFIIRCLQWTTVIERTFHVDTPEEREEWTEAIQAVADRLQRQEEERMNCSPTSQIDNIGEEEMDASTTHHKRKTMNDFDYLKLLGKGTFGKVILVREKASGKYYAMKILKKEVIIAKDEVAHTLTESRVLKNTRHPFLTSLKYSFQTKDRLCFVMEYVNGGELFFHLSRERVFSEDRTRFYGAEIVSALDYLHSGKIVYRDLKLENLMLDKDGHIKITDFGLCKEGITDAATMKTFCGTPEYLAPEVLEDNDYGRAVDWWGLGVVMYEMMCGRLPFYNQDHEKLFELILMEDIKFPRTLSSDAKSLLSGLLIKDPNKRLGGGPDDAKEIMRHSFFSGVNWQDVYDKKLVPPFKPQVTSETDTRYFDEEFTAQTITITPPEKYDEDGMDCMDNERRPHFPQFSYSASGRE
T6 sequence (Q8NI60 163-647): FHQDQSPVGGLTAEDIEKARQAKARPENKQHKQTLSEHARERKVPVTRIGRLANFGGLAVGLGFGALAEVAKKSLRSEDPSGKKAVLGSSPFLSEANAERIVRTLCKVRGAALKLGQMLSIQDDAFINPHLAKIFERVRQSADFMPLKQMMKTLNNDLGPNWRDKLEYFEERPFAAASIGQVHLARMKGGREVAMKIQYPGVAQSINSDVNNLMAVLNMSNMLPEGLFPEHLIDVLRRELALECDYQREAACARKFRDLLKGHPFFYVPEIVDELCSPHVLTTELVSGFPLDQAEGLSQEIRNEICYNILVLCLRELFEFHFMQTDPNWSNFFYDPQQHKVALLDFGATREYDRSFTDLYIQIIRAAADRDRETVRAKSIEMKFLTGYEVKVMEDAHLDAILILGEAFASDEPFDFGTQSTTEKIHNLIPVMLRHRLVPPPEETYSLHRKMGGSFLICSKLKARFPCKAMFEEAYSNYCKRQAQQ
T5 sequence (Q13705 19-512): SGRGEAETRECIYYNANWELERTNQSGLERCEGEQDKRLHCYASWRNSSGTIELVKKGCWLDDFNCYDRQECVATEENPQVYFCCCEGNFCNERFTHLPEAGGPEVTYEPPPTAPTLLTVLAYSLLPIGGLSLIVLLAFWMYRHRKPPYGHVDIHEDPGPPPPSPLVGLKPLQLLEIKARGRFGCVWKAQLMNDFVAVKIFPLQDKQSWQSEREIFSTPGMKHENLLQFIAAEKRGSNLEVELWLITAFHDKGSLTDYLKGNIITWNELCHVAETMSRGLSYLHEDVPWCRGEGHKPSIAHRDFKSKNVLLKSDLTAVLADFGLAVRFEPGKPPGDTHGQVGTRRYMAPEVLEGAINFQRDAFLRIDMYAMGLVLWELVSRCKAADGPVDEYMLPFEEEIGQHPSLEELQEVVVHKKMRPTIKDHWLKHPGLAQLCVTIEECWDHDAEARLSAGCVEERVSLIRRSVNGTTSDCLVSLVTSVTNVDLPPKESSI
T4 sequence (Q13523 whole entry): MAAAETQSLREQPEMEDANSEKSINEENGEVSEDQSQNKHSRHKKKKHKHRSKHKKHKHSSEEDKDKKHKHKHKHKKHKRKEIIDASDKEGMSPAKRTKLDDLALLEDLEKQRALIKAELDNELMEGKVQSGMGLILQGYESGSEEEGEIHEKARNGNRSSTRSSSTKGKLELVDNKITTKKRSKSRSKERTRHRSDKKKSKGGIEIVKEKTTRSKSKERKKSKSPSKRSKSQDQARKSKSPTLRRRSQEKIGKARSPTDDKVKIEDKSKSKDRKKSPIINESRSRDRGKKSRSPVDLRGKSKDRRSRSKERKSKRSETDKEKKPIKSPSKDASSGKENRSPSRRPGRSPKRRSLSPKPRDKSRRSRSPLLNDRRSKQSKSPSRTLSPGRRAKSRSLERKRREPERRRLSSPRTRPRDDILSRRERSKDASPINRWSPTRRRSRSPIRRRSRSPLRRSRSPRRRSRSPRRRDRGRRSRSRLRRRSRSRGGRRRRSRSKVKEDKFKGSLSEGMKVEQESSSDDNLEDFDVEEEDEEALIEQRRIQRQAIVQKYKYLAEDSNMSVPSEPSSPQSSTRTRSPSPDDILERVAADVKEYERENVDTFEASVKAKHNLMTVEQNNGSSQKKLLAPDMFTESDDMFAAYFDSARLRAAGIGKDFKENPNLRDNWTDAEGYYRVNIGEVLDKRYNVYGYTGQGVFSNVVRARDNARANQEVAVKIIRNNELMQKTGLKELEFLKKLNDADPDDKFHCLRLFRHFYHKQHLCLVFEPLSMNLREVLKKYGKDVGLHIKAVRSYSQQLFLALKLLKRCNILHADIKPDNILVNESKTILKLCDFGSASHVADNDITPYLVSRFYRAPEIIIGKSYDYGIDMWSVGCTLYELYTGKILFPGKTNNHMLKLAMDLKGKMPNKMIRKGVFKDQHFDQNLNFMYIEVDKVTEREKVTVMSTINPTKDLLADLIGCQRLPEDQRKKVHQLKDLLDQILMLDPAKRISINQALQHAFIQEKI

SMILES	remaining binding at 1 µM [1] [%]	remaining binding at 1 µM [2] [%]	remaining binding at 1 µM [3] [%]	remaining binding at 1 µM [4] [%]	remaining binding at 1 µM [5] [%]	remaining binding at 1 µM [6] [%]	remaining binding at 1 µM [7] [%]	remaining binding at 1 µM [8] [%]
CCNc1nc(Nc2ccc(C(=O)N3CCC(N4CCOCC4)CC3)cc2OC)nc2[nH]cc(C(F)(F)F)c12 [Example 104, (4-((4-(ethylamino)-5-(trifluoromethyl)-7H-pyrrolo[2,3-d]pyrimidine-2-yl)amino)-3-methoxyphenyl)(4-morpholinopiperidine-1-yl)methanone]	100	100	71	89	100	100	69	100
CNc1nc(Nc2ccc(C(=O)N3CCOCC3)cc2OC)nc2[nH]cc(C#N)c12 [Example 1, 2-((2-methoxy-4-(morpholine-4-carbonyl)phenyl)amino)-4-(methylamino)-7H-pyrrolo[2,3-d]pyrimidine-5-carbonitrile]	69	86	100	100	100	94	64	70
CC1(Nc2nc(Nc3cnn([C@H]4CCN(C5COC5)C[C@@H]4F)c3Cl)nc3[nH]cc(C#N)c23)CC1 [Example 52, 2-((5-chloro-1-((3S,4S)-3-fluoro-1-(oxetane-3-yl)piperidine-4-yl)-1H-pyrazole-4-yl)amino)((1-methylcyclopropyl)amino)-7H-pyrrolo[2,3-d]pyrimidine-5-carbonitrile]	91	92	75	19	85	98	7.6	4.5
